Measured values: patent publication US10597388B2, “Pyridazinone herbicides” (FMC CORPORATION, priority 2014, dated 2020)

Columns and labels:
Assay in all cases: Test D controlled growth environment herbicide test, pre- and postemergence
Format in all cases: in vivo
[1] = system: wheat, spring (spring wheat, Triticum aestivum)
How it was run: (§1)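 Pre-emergence: seeds sown in silt loam soil were sprayed with compound in a non-phytotoxic solvent mix containing surfactant. Post-emergence: plants at 2 to 18 cm (1- to 4-leaf stage) in peat moss/vermiculite medium got the same formulation. Visual 0–100 rating versus controls after 14 to 21 d.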

[2] = system: wheat, winter (winter wheat, Triticum aestivum)
How it was run: as §1

[3] = system: Russian thistle (Salsola kali)
How it was run: as §1

[4] = system: lambsquarters (Chenopodium album)
How it was run: as §1

[5] = system: windgrass (Apera spica-venti)
How it was run: as §1

[6] = system: deadnettle (henbit deadnettle, Lamium amplexicaule)
How it was run: as §1

[7] = system: canarygrass (Phalaris minor)
How it was run: as §1

[8] = system: chickweed (common chickweed, Stellaria media)
How it was run: as §1

[9] = system: ryegrass, Italian (Italian ryegrass, Lolium multiflorum)
How it was run: as §1

[10] = system: foxtail, green (green foxtail, Setaria viridis)
How it was run: as §1

kochia (Kochia scoparia) = system: kochia (Kochia scoparia)
How it was run: as §1

[11] = system: field violet (Viola arvensis)
How it was run: as §1

[12] = system: blackgrass (Alopecurus myosuroides)
How it was run: as §1

[13] = Postemergence, 31 g ai/ha, scale 0 to 100 (0 no effect, 100 complete control)
[14] = Postemergence, 125 g ai/ha, visual rating on scale 0 (no effect) to 100 (complete control), 14 to 21 d
[15] = Postemergence, 250 g ai/ha, scale 0 to 100 (0 no effect, 100 complete control)
[16] = Preemergence, 125 g ai/ha, scale 0 to 100 (0 no effect, 100 complete control)
[17] = Preemergence, 250 g ai/ha, scale 0 to 100 (0 no effect, 100 complete control)
[18] = postemergence, 62 g ai/ha, scale 0 to 100, 0 no effect, 100 complete control

CC(=O)Oc1c(C)nn(C)c(=O)c1-c1ccc(F)c2ccccc12 [Compound 90]
Wheat, Spring plant response rating [1, 13]: 25
Plant response rating, Wheat, Spring [1, 14]: 40
Plant response rating, Wheat, Spring [1, 15]: 50
Plant response rating (scale of 0 to 100), Wheat, Spring ([1]; Preemergence, 31 g ai/ha): 20
Plant response rating (scale of 0 to 100), Wheat, Spring ([1]; Preemergence, 62 g ai/ha): 35
Plant response rating, Wheat, Spring [1, 16]: 60
Plant response rating, Wheat, Spring [1, 17]: 70
Plant response rating, Wheat, Spring [1, 18]: 35
Wheat, Winter plant response rating [2, 13]: 20
Plant response rating, Wheat, Winter [2, 14]: 40
Plant response rating, Wheat, Winter [2, 15]: 40
Plant response rating (scale of 0 to 100), Wheat, Winter ([2]; Preemergence, 31 g ai/ha): 0
Plant response rating (scale of 0 to 100), Wheat, Winter ([2]; Preemergence, 62 g ai/ha): 10
Plant response rating, Wheat, Winter [2, 16]: 25
Plant response rating, Wheat, Winter [2, 17]: 50
Plant response rating, Wheat, Winter [2, 18]: 35
Russian Thistle plant response rating [3, 13]: 30
Plant response rating, Russian Thistle [3, 14]: 75
Plant response rating, Russian Thistle [3, 15]: 90
Plant response rating (scale of 0 to 100), Russian Thistle ([3]; Preemergence, 31 g ai/ha): 10
Plant response rating (scale of 0 to 100), Russian Thistle ([3]; Preemergence, 62 g ai/ha): 15
Plant response rating, Russian Thistle [3, 16]: 35
Plant response rating, Russian Thistle [3, 17]: 60
Plant response rating, Russian Thistle [3, 18]: 75
Lambsquarters plant response rating [4, 13]: 90
Plant response rating, Lambsquarters [4, 14]: 100
Plant response rating, Lambsquarters [4, 15]: 100
Plant response rating (scale of 0 to 100), Lambsquarters ([4]; Preemergence, 31 g ai/ha): 90
Plant response rating (scale of 0 to 100), Lambsquarters ([4]; Preemergence, 62 g ai/ha): 98
Plant response rating, Lambsquarters [4, 16]: 85
Plant response rating, Lambsquarters [4, 17]: 100
Plant response rating, Lambsquarters [4, 18]: 90
Windgrass plant response rating [5, 13]: 30
Plant response rating, Windgrass [5, 14]: 70
Plant response rating, Windgrass [5, 15]: 90
Plant response rating (scale of 0 to 100), Windgrass ([5]; Preemergence, 31 g ai/ha): 50
Plant response rating (scale of 0 to 100), Windgrass ([5]; Preemergence, 62 g ai/ha): 65
Plant response rating, Windgrass [5, 16]: 80
Plant response rating, Windgrass [5, 17]: 98
Plant response rating, Windgrass [5, 18]: 50
Deadnettle plant response rating [6, 13]: 70
Plant response rating, Deadnettle [6, 14]: 100
Plant response rating, Deadnettle [6, 15]: 100
Plant response rating (scale of 0 to 100), Deadnettle ([6]; Preemergence, 31 g ai/ha): 15
Plant response rating (scale of 0 to 100), Deadnettle ([6]; Preemergence, 62 g ai/ha): 70
Plant response rating, Deadnettle [6, 16]: 90
Plant response rating, Deadnettle [6, 17]: 98
Plant response rating, Deadnettle [6, 18]: 80
Canarygrass plant response rating [7, 13]: 25
Plant response rating, Canarygrass [7, 14]: 75
Plant response rating, Canarygrass [7, 15]: 75
Plant response rating (scale of 0 to 100), Canarygrass ([7]; Preemergence, 31 g ai/ha): 50
Plant response rating (scale of 0 to 100), Canarygrass ([7]; Preemergence, 62 g ai/ha): 75
Plant response rating, Canarygrass [7, 16]: 85
Plant response rating, Canarygrass [7, 17]: 95
Plant response rating, Canarygrass [7, 18]: 45
Chickweed plant response rating [8, 13]: 80
Plant response rating, Chickweed [8, 14]: 98
Plant response rating, Chickweed [8, 15]: 100
Plant response rating (scale of 0 to 100), Chickweed ([8]; Preemergence, 31 g ai/ha): 100
Plant response rating, Chickweed [8, 16]: 100
Plant response rating, Chickweed [8, 17]: 100
Plant response rating, Chickweed [8, 18]: 90
Ryegrass, Italian plant response rating [9, 13]: 75
Plant response rating, Ryegrass, Italian [9, 14]: 95
Plant response rating, Ryegrass, Italian [9, 15]: 100
Plant response rating (scale of 0 to 100), Ryegrass, Italian ([9]; Preemergence, 31 g ai/ha): 100
Plant response rating (scale of 0 to 100), Ryegrass, Italian ([9]; Preemergence, 62 g ai/ha): 100
Plant response rating, Ryegrass, Italian [9, 16]: 100
Plant response rating, Ryegrass, Italian [9, 17]: 100
Plant response rating, Ryegrass, Italian [9, 18]: 90
Foxtail, Green plant response rating [10, 13]: 25
Plant response rating, Foxtail, Green [10, 14]: 70
Plant response rating, Foxtail, Green [10, 15]: 75
Plant response rating (scale of 0 to 100), Foxtail, Green ([10]; Preemergence, 31 g ai/ha): 25
Plant response rating (scale of 0 to 100), Foxtail, Green ([10]; Preemergence, 62 g ai/ha): 45
Plant response rating, Foxtail, Green [10, 16]: 70
Plant response rating, Foxtail, Green [10, 17]: 95
Plant response rating, Foxtail, Green [10, 18]: 55
Kochia plant response rating (kochia (Kochia scoparia); [13]): 85
Plant response rating, Kochia (kochia (Kochia scoparia); [14]): 100
Plant response rating, Kochia (kochia (Kochia scoparia); [15]): 100
Plant response rating (scale of 0 to 100), Kochia (kochia (Kochia scoparia); Preemergence, 31 g ai/ha): 75
Plant response rating (scale of 0 to 100), Kochia (kochia (Kochia scoparia); Preemergence, 62 g ai/ha): 65
Plant response rating, Kochia (kochia (Kochia scoparia); [16]): 90
Plant response rating, Kochia (kochia (Kochia scoparia); [17]): 80
Plant response rating, Kochia (kochia (Kochia scoparia); [18]): 100
Field Violet plant response rating [11, 13]: 90
Plant response rating, Field Violet [11, 14]: 100
Plant response rating, Field Violet [11, 15]: 100
Plant response rating (scale of 0 to 100), Field Violet ([11]; Preemergence, 31 g ai/ha): 95
Plant response rating (scale of 0 to 100), Field Violet ([11]; Preemergence, 62 g ai/ha): 95
Plant response rating, Field Violet [11, 16]: 100
Plant response rating, Field Violet [11, 17]: 100
Plant response rating, Field Violet [11, 18]: 98
Blackgrass plant response rating [12, 13]: 15
Plant response rating, Blackgrass [12, 14]: 55
Plant response rating, Blackgrass [12, 15]: 65
Plant response rating (scale of 0 to 100), Blackgrass ([12]; Preemergence, 31 g ai/ha): 25
Plant response rating, Blackgrass ([12]; Preemergence, 62 g ai/ha, scale 0 to 100 (0 no effect, 100 complete control)): 35
Plant response rating, Blackgrass [12, 16]: 45
Plant response rating, Blackgrass [12, 17]: 60
Plant response rating, Blackgrass [12, 18]: 35
